Literature values, collected in patent US20170281701A1, “Formulation for the Nebulization of Oil Based Substances Suitable for Use with a Vibrating Mesh Nebulizer” (priority 2016, published 2017).

Tests used:
[1] = compared with Δ8-THC
[2] = not given; remark: listed apart in the source
[3] = smoked cannabis cigarette, of total available amount
[4] = oral dose of 20 mg in a chocolate cookie

Row | Structure (SMILES) | permeability through the skin relative to Δ8-THC [1] | absorption through the rectal route [2] | further results
1 | C=C(C)[C@@H]1CCC(C)=C[C@H]1c1c(O)cc(CCCCC)cc1O [CBD, cannabidiol] | 10 fold |  | 
2 | CCCCCc1cc(O)c2c(c1)OC(C)(C)c1ccc(C)cc1-2 [CBN, cannabinol] | 10 fold |  | 
3 | CCCCCc1cc(O)c2c(c1)OC(C)(C)[C@@H]1CCC(C)=C[C@@H]21 [dronabinol] |  |  | administered dose entering the systemic circulation (orally administered, extensive first-pass metabolism): 10-20%
4 | CCCCCc1cc(O)c2c(c1)OC(C)(C)[C@@H]1CCC(C)=C[C@@H]21 [Δ^9-THC, Δ-9-tetrahydrocannabinol] |  | not absorbed | absorption (description) [4]: slow and unreliable; systemic availability [4]: 4-12%; maximum of THC content in a cannabis cigarette absorbed or delivered to the systemic circulation [3]: 25-27%
5 | CCCCCc1cc(OC(=O)CCC(=O)O)c2c(c1)OC(C)(C)[C@@H]1CCC(C)=C[C@@H]21 [Δ^9-THC-hemisuccinate] |  | is absorbed | 
